Measurements: US20110262442A1, “COMPOSITIONS FOR TREATING CNS DISORDERS” (Adenios, Inc., priority 2009, published 2011)

System: blood brain barrier
Experiment: Fluorimetric analysis of labeled dextrans in brain after i.v. drug administration
Type: in vivo, mice
Experimental: C57BL/6 mice from Jackson Laboratories were used as wild types. All mice used were aged 7-9 weeks and weighed between 20-25 g. All rats were aged 8 weeks and weighed 200-220 g. Mice and rats were bred and housed under specific pathogen-free conditions.
The adenosine receptor agonists NECA, CCPA and CGS 21860 were purchased from Tocris. Each was dissolved in DMSO then diluted in PBS to the desired concentration; in most cases final DMSO concentrations were <0.5% (vol/vol). For vehicle controls, DMSO was diluted in PBS to the same concentration. Dehydrated dextrans labeled with either FITC or Texas Red were purchased from Invitrogen and re-suspended in PBS to 10 mg ml^−1. All experiments involving dextran injection used 0.5 mg dextran in PBS. In experiments where drug and dextran were injected concomitantly, 0.5 mg of dextran was mixed with the drug to the desired concentration in a final volume of 200 μl. All injections were retro-orbital i.v. with a 27-gauge needle. In the SCH 58261 experiment, groups were administered vehicle or SCH 58261 for 4 d. Vehicle/drug and dextrans were injected on day 5 and tissues were collected 3 h after vehicle/drug administration. In Lexiscan experiments, Lexiscan was administered i.v. with 3 injections, 5 min apart and tissues were collected at 15 min unless otherwise indicated.
In dose-response experiments and experiments with the A1 AR and A2A AR knock-out mice, drugs and dextrans were injected concomitantly. After 3 h, the mice were anesthetized with ketamine/xylazine and subjected to a nose cone containing isoflurane. They were perfused with 25-50 ml ice-cold PBS through the left ventricle of the heart then decapitated. Their brains were removed, weighed and frozen for later analysis.
Ice-cold 50 mM Tris-Cl (pH 7.6) was added to frozen brains (100 μl per 100 mg brain) and were to thawed on ice. They were homogenized manually with ˜45 strokes of a dounce homogenizer in plastic 1.5 ml microfuge tubes then spun at 16.1 g in a microfuge for 30 min at room temperature (rt). The supernatants were transferred to new tubes and an equal volume absolute methanol was added. The samples were spun again at 16.1 g for 30 min at rt. Supernatant (200 μl) was transferred to a Corning costar 96 well black polystyrene assay plate (clear bottom). Additionally, a series of standards containing 0.001-10 μg ml^−1 dextran in 50% Tris-Cl/50% absolute methanol (vol/vol) was added to each plate. Absolute concentrations of dextrans were derived from these standard curves. Fluorimetric analysis was performed on a BioTek Synergy 4. FITC-dextran was detected at 488/519 (excitation/emission) and Texas Red-dextran was detected at 592/618.

[1] = WT mice, 3 h after i.v. administration

Structure (SMILES): CCNC(=O)[C@H]1O[C@@H](n2cnc3c(N)ncnc32)[C@H](O)[C@@H]1O [NECA, 5′-N-ethylcarboxamidoadenosine]
- levels of i.v.-administered 10,000 Da dextrans in brain compared to wild type mice (A1−/− mice, 3 h after i.v. administration): significantly lower levels
- levels of i.v.-administered 10,000 Da dextrans in brain compared to wild type mice (A2A−/− mice, 3 h after i.v. administration): significantly lower levels
- time of maximum entry of labeled dextran into the CNS post-treatment (WT mice, 10,000 Da FITC-dextran co-administered with drug at T0): 4 to 6 h
- CNS entry of 10,000 Da dextrans compared to vehicle [1]: dose-dependent increase
- CNS entry of 70,000 Da dextrans compared to vehicle [1]: dose-dependent increase
- time post-treatment by which dextran levels returned to baseline (WT mice, Texas Red-dextran injected after drug, 19.5 h collection time): ≤ 18 h
- detectable levels of dextran in the brain at 8 h post-treatment (WT mice, Texas Red-dextran injected at indicated time after drug, 9.5 h collection time): decreased from the maximum
- dose giving maximum entry of dextrans into the CNS (WT mice, i.v., 100 μl of 25 μM): 0.80 µg
